“Also recorded” adds a separate entry of the source.

Holding throughout (type): cell-based, Escherichia coli
The test system of assay [1] is pDNA of E. coli K-12 BW25113/pCA24N. Briefly: Denaturing agarose gel electrophoresis of pDNA from treated cells. As to conditions: non-persisters and rifampicin-induced persisters, MMC 100 μg/mL 1 h. The protocol: Overnight cultures (16 h) of E. coli K-12 BW25113/pCA24N grown in LB were diluted 1:1000 in buffered LB and grown to the desired turbidity. For exponential phase cells (i.e., non-persisters), cultures were grown to a turbidity of 2.0 at 600 nm. For rifampicin-induced persisters, cultures were grown to a turbidity of 0.8 at 600 nm, exposed to rifampicin (100 μg/mL) for 30 min, centrifuged, and resuspended in fresh medium to remove the rifampicin. Non-persister and rifampicin-induced persister cultures were treated with MMC (100 μg/mL) for 1 h. pDNA was extracted from samples taken before and after MMC treatment and linearized by HindIII digestion. As a positive control, 2 μg of linearized pDNA from non-persisters was crosslinked in vitro with 500 μg/mL (1.5 mM) MMC in 0.2 mM EDTA, 50 mM NaCl, and 5 mM Tris (pH=7.6) with Na2S2O4 added six times at 10 min intervals to reach a final concentration of 2.25 mM (1.5× molarity of MMC). The in vitro crosslinking reaction was performed anaerobically on ice and the reaction was stopped by exposure to air. Linearized pDNA was visualized after electrophoresis through a TAE agarose gel and an alkaline denaturing agarose gel. Experiment was performed with at least two independent cultures.

For assay [2], the system named is E. coli K-12. The protocol: Persister cell killing and eradication assays (planktonic cells). For the time course experiment, late stationary phase cells of E. coli K-12 (wild-type and isogenic mutants) were prepared by growing cells overnight (16 h) in LB medium buffered with 100 mM KPO4 at pH 7.0 (buffered LB). A 1 mL culture was used for a drop (10 μL×3) assay to check cell viability at 0 h (i.e., before antibiotic treatment). […] At 1 h intervals, 1 mL culture was centrifuged at 10,000 rpm for 3 min, the supernatant was discarded, the cells were resuspended in 1 mL of normal saline (0.85% NaCl), and the cell suspension was serially diluted for a drop assay to check cell viability.
To test for eradication, the wild-type E. coli K-12 cells were treated with cisplatin for 12 h, a 1 mL sample was centrifuged, the cell pellet was resuspended in 150 μL of normal saline, and the cells were spread on LB agar to check cell viability. Another 1 mL culture was diluted 1:10 with fresh buffered LB and the cells were incubated to allow any remaining cells to replicate. After 12 h, 18 h, and 24 h, 1 mL samples were centrifuged, resuspended in 150 μL of normal saline and spread on LB agar plates to check cell viability. At least two independent cultures were used.

In assay [3] the test system is E. coli K-12. The experiment in a line: Minimum inhibitory concentration (MIC) assay. As to conditions: 16 h, lack of turbidity. As for the experimental part:
Minimum inhibitory concentration (MIC) assay. To determine the MICs of cisplatin for E. coli K-12, enterohemorrhagic E. coli (EHEC), S. aureus, and P. aeruginosa (PAO1 and PA14), freshly inoculated cultures (at least two independent cultures) in buffered LB (TSB for S. aureus) were incubated for 16 h with varying concentrations of cisplatin, and growth inhibition was assayed by the lack of turbidity.

As for `CO[C@@]12[C@H](COC(N)=O)C3=C(C(=O)C(C)=C(N)C3=O)N1C[C@@H]1N[C@@H]12` [MMC, mitomycin C], in assay [1], the “pDNA crosslinking (migration as double-stranded DNA under denaturing conditions)” value is given as “crosslinks DNA in E. coli K-12 persister cells; also recorded: high percentage of crosslinking”.

For `N.N.[Cl][Pt][Cl]` [cisplatin, cis-diamminodichloroplatinum(II)], the “eradication of persister cells (colonies from 1 mL of culture)” value with E. coli K-12 [2] (5×MIC of cisplatin for 12 h) was “completely eradicated”. In addition, the “killing of katE or katG catalase mutants compared to the wild-type strain” value with E. coli K-12 [2] (8 h treatment with 5×MIC of cisplatin) is “did not find any significant differences in killing”. For the same molecule, in the assay on E. coli K-12 [2] (late stationary phase (16 h of growth), buffered LB, cisplatin 500 μg/mL (5×MIC), ciprofloxacin 5 μg/mL (100×MIC), 8 h), the “time course dependent killing” value was “nearly eradicated; also recorded: eradicates late stationary-phase E. coli K-12 cells”. The “regrowth when cisplatin is withdrawn” value in the assay with E. coli K-12 [2] (treated culture inoculated into fresh medium, 12 h, 18 h, and 24 h) is reported as “no increase in turbidity or colonies”. Besides, in the assay with E. coli K-12 [3], the MIC (in general, the lowest concentration that inhibits growth of the organism) came to 100 µg/mL.
